From patent publication US10143681B2, “Factor XIa inhibitors” (MERCK SHARP & DOHME CORP., priority 2016, dated 2018)

These molecules were tested on Human plasma (intrinsic coagulation cascade) (assay: Activated Partial Thromboplastin Time (aPTT) Assay). Conditions: concentration that causes a 50% (1.5×) increase of clot time over vehicle.
Protocol: Activated partial thromboplastin time (aPTT) is a clotting test that measures the intrinsic coagulation cascade. The test is performed in sodium citrated plasma. Human plasma is made by collecting blood from healthy donors of both genders into Na citrate tubes (Sarstedt coagulation 9NC/10 ml). Blood is centrifuged at 1500×g and the plasma is collected. aPTT is checked on each individual donor and those within the normal range (28-40 seconds) are pooled, aliquoted, and stored at −80 C. Test samples are prepared by spiking inhibitors or vehicle into plasma. These spiked samples are then run on a coagulation analyzer (STA-R Evolution, Stago Diagnostica). In general, the analyzer performs the following steps: Factor XII is activated by addition of ellagic acid (Pacific Hemostasis), and then time to clot is measured after re-calcification of the sample. Inhibition of FXI will cause aPTT clot time to be prolonged. The data is expressed as percent increase over vehicle control clot time and the concentration that causes a 50% (1.5×) percent increase of clot time are reported.

| SMILES | aPTT (1.5x) |
| --- | --- |
| O=C(O)c1ccc(NC(=O)[C@@H](CC2CC2)c2ccc(-c3c(C(F)F)ccc(Cl)c3F)c[n+]2[O-])cc1 (mixture of isomers) [Example 23, (S)- and (R)-2-(1-((4-carboxyphenyl)amino)-3-cyclopropyl-1-oxopropan-2-yl)-5-(3-chloro-6-(difluoromethyl)-2-fluorophenyl)pyridine 1-oxide] | 0.61 µM |

Each molecule was assayed against human Factor XIa (Homo sapiens (Human), UniProt P03951) (assay: Factor XIa Assay). Conditions: @ 1000 nM compound; read-out: FXIa % Inh. @ 1000 nM.
Sequence of human Factor XIa (P03951 388-625): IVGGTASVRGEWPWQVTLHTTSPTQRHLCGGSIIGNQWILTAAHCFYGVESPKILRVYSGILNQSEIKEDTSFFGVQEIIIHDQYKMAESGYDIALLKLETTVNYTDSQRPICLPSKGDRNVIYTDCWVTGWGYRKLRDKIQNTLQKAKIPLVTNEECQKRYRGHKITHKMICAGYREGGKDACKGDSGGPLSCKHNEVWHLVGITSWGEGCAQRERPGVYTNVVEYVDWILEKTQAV
Sequence of human Factor XIa (P03951 19-387 partner): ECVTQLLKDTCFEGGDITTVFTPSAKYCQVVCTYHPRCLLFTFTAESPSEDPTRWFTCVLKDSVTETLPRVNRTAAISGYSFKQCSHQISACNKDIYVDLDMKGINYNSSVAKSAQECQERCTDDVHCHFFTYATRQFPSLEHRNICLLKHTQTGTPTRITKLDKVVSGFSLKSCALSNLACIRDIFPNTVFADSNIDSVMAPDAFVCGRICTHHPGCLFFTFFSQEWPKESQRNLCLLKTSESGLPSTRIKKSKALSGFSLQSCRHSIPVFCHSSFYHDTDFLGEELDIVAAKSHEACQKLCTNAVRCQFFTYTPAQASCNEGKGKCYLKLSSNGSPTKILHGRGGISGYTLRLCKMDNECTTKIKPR
Format: biochemical
Protocol: The effectiveness of a compound of the present invention as an inhibitor of Coagulation Factor XIa can be determined using a relevant purified serine protease, and an appropriate synthetic substrate. The rate of hydrolysis of the chromogenic or fluorogenic substrate by the relevant serine protease was measured both in the absence and presence of compounds of the present invention. Assays were conducted at room temperature or at 37° C. […] A decrease in the rate of fluorescence change in the presence of inhibitor is indicative of enzyme inhibition. Such methods are known to one skilled in the art. The results of this assay are expressed as the half-maximal inhibitory concentrations (IC50), or the inhibitory constant, Ki.
Compounds were pre-incubated for 30 minutes at 25° C. with human (0.04 nM) Factor XIa in 50 mM HEPES buffer with 150 mM sodium chloride, 5 mM calcium chloride, 0.1% PEG 8000, pH 7.4. Factor XIa enzymatic activity was determined by addition of the substrate glycine-proline-arginine-7-amido-4-trifluoromethylcoumarin (GPR-AFC) and measurement of the fluorescence at 400/505 nm after a 60 minute incubation at 25° C. The % inhibition for each data point was calculated from the data and analyzed using the log (inhibitor) vs. response four parameters equation to determine the half-maximal inhibitory concentrations (IC50). The IC50 were converted to equilibrium inhibitory constants (Ki) using the Cheng-Prusoff equation.

| SMILES | inhibition at 1 µM |
| --- | --- |
| O=C(O)c1ccc(NC(=O)C(CC2CC2)c2ccc(-c3c(C(F)(F)F)ccc(Cl)c3F)c[n+]2[O-])cc1 (single isomer, unassigned) [Example 26, (S)- or (R)-2-(1-((4-carboxyphenyl)amino)-3-cyclopropyl-1-oxopropan-2-yl)-5-(3-chloro-2-fluoro-6-(trifluoromethyl)phenyl)pyridine 1-oxide] | 39% |
| O=C(O)c1ccc(NC(=O)C(CC2CC2C(F)(F)F)c2ccc(-c3c(OC(F)F)ccc(Cl)c3F)c[n+]2[O-])cc1 (single isomer, unassigned) [Example 110, 2-(1-((4-carboxyphenyl)amino)-1-oxo-3-(2-(trifluoromethyl)cyclopropyl)propan-2-yl)-5-(3-chloro-6-(difluoromethoxy)-2-fluorophenyl)pyridine 1-oxide] | 29% |
| O=C(O)c1ccc(NC(=O)C(CC2CC(F)C2)c2ccc(-c3c(OC(F)F)ccc(Cl)c3F)c[n+]2[O-])cc1 (single isomer, unassigned) [Example 101, 2-(1-((4-carboxyphenyl)amino)-3-(3-fluorocyclobutyl)-1-oxopropan-2-yl)-5-(3-chloro-6-(difluoromethoxy)-2-fluorophenyl)pyridine 1-oxide] | 44% |
| O=C(O)c1ccc(NC(=O)[C@@H](CC2CC2)c2ccc(-c3c(OCC4CC4)ccc(Cl)c3F)c[n+]2[O-])cc1 [Example 12, (S)-4-[(2-{5-[3-chloro-6-(cyclopropylmethoxy)-2-fluorophenyl]-1-oxidopyridin-2-yl}-3-cyclopropylpropanoyl)amino] benzoic acid] | 35% |
| Cc1cc(C(CC2CC2)C(=O)Nc2ccc(C(=O)O)cc2)[n+]([O-])cc1-c1c(OC(F)F)ccc(Cl)c1F [Example 66, (S)- and (R)-2-(1-((4-carboxyphenyl)amino)-3-cyclopropyl-1-oxopropan-2-yl)-5-(3-chloro-6-(difluoromethoxy)-2-fluorophenyl)-4-methylpyridine 1-oxide] | 34% |
| COC(=O)c1ccc(NC(=O)C(CC2CCC2)c2ccc(-c3c(C(F)F)ccc(Cl)c3F)c[n+]2[O-])cc1 (single isomer, unassigned) [Example 20, (S)- or (R)-methyl 4-[(2-{5-[3-chloro-6-(difluoromethyl)-2-fluorophenyl]-1-oxidopyridin-2-yl}-3-cyclobutylpropanoyl)amino]benzoate] | 13% |

Same assay, conditions: human Factor XIa 0.04 nM, 30 min pre-incubation at 25° C., substrate GPR-AFC; read-out: FXIa IC50

| SMILES | IC50 |
| --- | --- |
| O=C(O)c1ccc(NC(=O)C(CC2CC2)c2ccc(-c3c(C(F)(F)F)ccc(Cl)c3F)c[n+]2[O-])cc1 (single isomer, unassigned) [Example 26, (S)- or (R)-2-(1-((4-carboxyphenyl)amino)-3-cyclopropyl-1-oxopropan-2-yl)-5-(3-chloro-2-fluoro-6-(trifluoromethyl)phenyl)pyridine 1-oxide] | > 1000 nM |
| O=C(O)c1ccc(NC(=O)[C@@H](CC2CC2)c2ccc(-c3c(OCC4CC4)ccc(Cl)c3F)c[n+]2[O-])cc1 [Example 12, (S)-4-[(2-{5-[3-chloro-6-(cyclopropylmethoxy)-2-fluorophenyl]-1-oxidopyridin-2-yl}-3-cyclopropylpropanoyl)amino] benzoic acid] | > 1000 nM |
| Cc1cc(C(CC2CC2)C(=O)Nc2ccc(C(=O)O)cc2)[n+]([O-])cc1-c1c(OC(F)F)ccc(Cl)c1F [Example 66, (S)- and (R)-2-(1-((4-carboxyphenyl)amino)-3-cyclopropyl-1-oxopropan-2-yl)-5-(3-chloro-6-(difluoromethoxy)-2-fluorophenyl)-4-methylpyridine 1-oxide] | > 1000 nM |
| COC(=O)c1ccc(NC(=O)C(CC2CCC2)c2ccc(-c3c(C(F)F)ccc(Cl)c3F)c[n+]2[O-])cc1 (single isomer, unassigned) [Example 20, (S)- or (R)-methyl 4-[(2-{5-[3-chloro-6-(difluoromethyl)-2-fluorophenyl]-1-oxidopyridin-2-yl}-3-cyclobutylpropanoyl)amino]benzoate] | > 1000 nM |
| CC1CC1C[C@H](C(=O)Nc1ccc(C(=O)O)cc1)c1ccc(-c2c(OC(F)F)ccc(Cl)c2F)c[n+]1[O-] (single isomer, unassigned) [Example 54] | 370 nM |
| Cc1cc(NC(=O)C(CC2CC2)c2ccc(-c3c(C(F)F)ccc(Cl)c3F)c[n+]2[O-])ccc1C(=O)O (single isomer, unassigned) [Example 121, 2-(1-((4-carboxy-3-methylphenyl)amino)-3-cyclopropyl-1-oxopropan-2-yl)-5-(3-chloro-6-(difluoromethyl)-2-fluorophenyl)pyridine 1-oxide] | 620 nM |
| CC(C1CC1)C(C(=O)Nc1ccc(C(=O)O)cc1)c1ccc(-c2c(OC(F)F)ccc(Cl)c2F)c[n+]1[O-] (single isomer, unassigned) [Example 58, 2-(1-((4-carboxyphenyl)amino)-3-cyclopropyl-1-oxobutan-2-yl)-5-(3-chloro-6-(difluoromethoxy)-2-fluorophenyl)pyridine 1-oxide] | 334 nM |

Continued, values first:

| IC50 | SMILES |
| --- | --- |
| 166 nM | CCOC(=O)c1ccc(NC(=O)[C@H](CC2CCC2)c2ccc(-c3c(C(F)F)ccc(Cl)c3F)c[n+]2[O-])cc1 [Example 5, (R)-5-(3-chloro-6-(difluoromethyl)-2-fluorophenyl)-2-(3-cyclobutyl-1-((4-(ethoxycarbonyl)phenyl)amino)-1-oxopropan-2-yl)pyridine 1-oxide] |
| 24.7 nM | O=C(O)c1ccc(NC(=O)C(CC23CC(C2)C3)c2ccc(-c3c(C(F)F)ccc(Cl)c3F)c[n+]2[O-])cc1F (single isomer, unassigned) [Example 123, 2-(3-(bicyclo[1.1.1]pentan-1-yl)-1-((4-carboxy-3-fluorophenyl)amino)-1-oxopropan-2-yl)-5-(3-chloro-6-(difluoromethyl)-2-fluorophenyl)pyridine 1-oxide] |
| 58.4 nM | O=C(O)c1ccc(NC(=O)C(CC2CC2)c2ccc(-c3c(C(F)F)ccc(Cl)c3F)c[n+]2[O-])cc1F (single isomer, unassigned) [Example 117, 2-(1-((4-carboxy-3-fluorophenyl)amino)-3-cyclopropyl-1-oxopropan-2-yl)-5-(3-chloro-6-(difluoromethyl)-2-fluorophenyl)pyridine 1-oxide] |
| 157 nM | CC1(C)CC1CC(C(=O)Nc1ccc(C(=O)O)cc1)c1ccc(-c2c(OC(F)F)ccc(Cl)c2F)c[n+]1[O-] (single isomer, unassigned) [Example 111, 2-(1-((4-carboxyphenyl)amino)-3-(2,2-dimethylcyclopropyl)-1-oxopropan-2-yl)-5-(3-chloro-6-(difluoromethoxy)-2-fluorophenyl)pyridine 1-oxide] |
| 62 nM | CC(C1CC1)C(C(=O)Nc1ccc(C(=O)O)cc1)c1ccc(-c2c(OC(F)F)ccc(Cl)c2F)c[n+]1[O-] (single isomer, unassigned) [Example 60, 2-(1-((4-carboxyphenyl)amino)-3-cyclopropyl-1-oxobutan-2-yl)-5-(3-chloro-6-(difluoromethoxy)-2-fluorophenyl)pyridine 1-oxide] |
| 93.6 nM | O=C(O)c1ccc(NC(=O)C(CC2CC2C(F)(F)F)c2ccc(-c3c(C(F)F)ccc(Cl)c3F)c[n+]2[O-])cc1 (single isomer, unassigned) [Example 86, 2-(1-((4-carboxyphenyl)amino)-1-oxo-3-(2-(trifluoromethyl)cyclopropyl)propan-2-yl)-5-(3-chloro-6-(difluoromethyl)-2-fluorophenyl)pyridine 1-oxide] |
| 3.79 nM | CC1CCC1CC(C(=O)Nc1ccc(C(=O)O)cc1)c1ccc(-c2c(OC(F)F)ccc(Cl)c2F)c[n+]1[O-] (single isomer, unassigned) [Example 106, 2-(1-((4-carboxyphenyl)amino)-3-(2-methylcyclobutyl)-1-oxopropan-2-yl)-5-(3-chloro-6-(difluoromethoxy)-2-fluorophenyl)pyridine 1-oxide] |
| 299 nM | C[C@]1(O)CC[C@@H](CC(C(=O)Nc2ccc(C(=O)O)cc2)c2ccc(-c3c(C(F)F)ccc(Cl)c3F)c[n+]2[O-])CC1 (single isomer, unassigned) [Example 44, 2-(1-((4-carboxyphenyl)amino)-3-((1s,4s)-4-hydroxy-4-methylcyclohexyl)-1-oxopropan-2-yl)-5-(3-chloro-6-(difluoromethyl)-2-fluorophenyl)pyridine 1-oxide] |
| 155 nM | CC1CC1C[C@H](C(=O)Nc1ccc(C(=O)O)cc1)c1ccc(-c2c(OC(F)F)ccc(Cl)c2F)c[n+]1[O-] (single isomer, unassigned) [Example 53] |
| 26 nM | O=C(O)c1ccc(NC(=O)C(C[C@H]2CC[C@H](O)CC2)c2ccc(-c3c(C(F)F)ccc(Cl)c3F)c[n+]2[O-])cc1 (single isomer, unassigned) [Example 36, (S)- or (R)-2-(1-((4-carboxyphenyl)amino)-3-((1r,4r)-4-hydroxycyclohexyl)-1-oxopropan-2-yl)-5-(3-chloro-6-(difluoromethyl)-2-fluorophenyl)pyridine 1-oxide] |
| 47 nM | O=C(O)c1ccc(NC(=O)C(CC2CCC2)c2ccc(-c3c(OC(F)F)ccc(Cl)c3F)c[n+]2[O-])cc1 (single isomer, unassigned) [Example 14, (S)- or (R)-4-[(2-{5-[3-chloro-6-(difluoromethoxy)-2-fluorophenyl]-1-oxidopyridin-2-yl}-3-cyclobutylpropanoyl)amino] benzoic acid] |
